From patent US20020132019A1, “Sterol fractions of Nigella sativa L. seeds” (priority 2000, published 2002)

Tests used:
Assay type in all cases: in vivo
[1] = tested on: histamine-induced bronchospasm in guinea pigs; assay: Prophylactic anti-allergic effect: protection against histamine aerosol (1%) induced bronchospasm; settings: 239 mg/kg i.p.
Method: The prophylactic anti-allergic effects of the Nigella sativa L. sterol fraction were evaluated in guinea pigs (300-400 grams). Animals were divided into 5 groups (10 animals each) and treated i.p. As follows:
First: Animals treated by saline.
Second: Animals treated by diphenhydramine (239 mg/kg/day).
Third: Animals treated by the Nigella sativa L. sterol fraction (50 mg/kg).
Animals treated by the Nigella sativa L. sterol fraction (100 mg/kg).
Fifth: Animals treated by the Nigella sativa L. sterol fraction (150mg/kg).
Animals were exposed 30 minutes after their i.p. Injection of diphenhydramine and the Nigella sativa L. sterol fraction (50,100 and 150 mg/kg) to histamine aerosol (1% for 3 minutes to induce bronchospasm or tachypnea) (Armitage et al, Br. J. Pharmacol., 16:59-76 (1961)). The percent protection against bronchospasm and loss of rightening after 30, 60 and 90 minutes was calculated (Dawson and Sweatman, Br. J. Pharmacol, 71:387-398 (1980)).

[2] = tested on: guinea pigs exposed to histamine aerosol (0.25%); assay: Prophylactic anti-asthmatic effect: pre-convulsive time on histamine aerosol (0.25%); settings: 50 :g/kg, treated for 21 days, histamine 0.25% aerosol
Method: This example explains an in vivo study to evaluate the prophylactic (protective) anti-asthmatic effect of the Nigella sativa L. sterol fraction. The prophylactic anti-asthmatic effect was evaluated in vivo by measurement of the pre-convulsive time in guinea pigs exposed to histamine aerosol (0.25%).
Guinea pigs were divided into three groups with 8 animals per group. The first group received saline injections to serve as negative control. The second group received ketotifen, which is the standard treatment to serve as positive control. The third group received 200 mg/kg each of the Nigella sativa L. sterol fraction of the present invention.
Animals in all groups were treated for 21 days after which time they were exposed to histamine (0.25 %) aerosol and the preconvulsive time was recorded.

[3] = tested on: ova albumin sensitized guinea pigs; assay: Tachypnea protective effect in ova albumin sensitized animals; settings: 50 :g/kg, treated for 21 days, ova albumin inhalation
Method: This experiment was an in vivo study to evaluate the tachypnea (protective) effect of the Nigella sativa L. sterol fraction of the present invention. The second protocol involved sensitized animals. Animals were sensitized by injecting ova albumin in two doses 100 mg. each (S.C. and I.P., simultaneously). Animals were resensitized 15 days later. Guinea pigs were divided into three groups with 8 animals per group. The first group received a saline injection to serve as negative control. The second group received ketotifen which is the standard treatment to serve as positive control. The third group received 200 mg/kg each of the Nigella sativa L. sterol fraction of the present invention. Animals in all groups were treated for 21 days following which they were exposed to ova albumin inhalation and time to onset of tachypnea was recorded as shown in the table below.

SMILES	% protection 30 minutes ([1]; 30 minutes)	% protection 60 minutes ([1]; 60 minutes)	% protection 90 minutes ([1]; 90 minutes)	% of Prophylaxis (Protection) [2]	% of Prophylaxis [3]
CN(C)CCOC(c1ccccc1)c1ccccc1 [Diphenhydramine, diphenhydramine]	100%	100%	90%	–	–
CN1CCC(=C2c3ccccc3CC(=O)c3sccc32)CC1 [ketotifen]	–	–	–	82.85%	44.4%
